Consider four molecules from ChEMBL document CHEMBL4420076, “Amylin and calcitonin receptor agonist” (2017).

Peptide text beside a SMILES is read from it. * marks the point of attachment. C18 diacid = O=C(O)CCCCCCCCCCCCCCCCC(=O)*

For orientation: IC50 means the concentration that gives 50% inhibition. As usually defined, the solubility is how much of the substance goes into solution per volume. Low readings indicate little dissolved substance, high ones much dissolved substance. Broadly, the EC50 is the midpoint of the concentration-response curve.

For series [1], the target named is T1, Amylin receptor AMY3; CALCR/RAMP3 (Homo sapiens, UniProt O60896+P30988).
T1 sequence (P30988 whole entry): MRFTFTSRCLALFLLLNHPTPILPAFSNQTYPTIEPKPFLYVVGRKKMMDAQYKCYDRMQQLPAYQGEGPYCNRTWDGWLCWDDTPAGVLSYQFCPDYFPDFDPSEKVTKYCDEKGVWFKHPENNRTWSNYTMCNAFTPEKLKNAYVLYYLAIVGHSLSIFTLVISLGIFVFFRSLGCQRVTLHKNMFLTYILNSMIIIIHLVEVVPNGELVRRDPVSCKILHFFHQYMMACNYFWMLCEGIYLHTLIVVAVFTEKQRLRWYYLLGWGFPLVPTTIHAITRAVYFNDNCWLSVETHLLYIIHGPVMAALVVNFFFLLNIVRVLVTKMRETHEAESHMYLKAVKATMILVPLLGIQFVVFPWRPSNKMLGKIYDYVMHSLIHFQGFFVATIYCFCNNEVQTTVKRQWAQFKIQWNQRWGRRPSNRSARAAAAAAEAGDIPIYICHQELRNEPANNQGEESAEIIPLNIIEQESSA
T1 sequence (O60896 whole entry): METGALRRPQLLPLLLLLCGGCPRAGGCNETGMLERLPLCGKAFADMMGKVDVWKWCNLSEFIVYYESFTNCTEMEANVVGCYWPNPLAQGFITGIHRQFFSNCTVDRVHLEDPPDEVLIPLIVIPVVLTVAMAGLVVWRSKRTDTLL
Nature of the series: Displacement of [125I]-labeled rat amylin from human amylin receptor expressed in BHK tkts13 whole cells co-expressing RAMP3 incubated for 60 mins by scintillation proximity assay. It counts as cell-based. For orientation: Displacement assays read how much labelled ligand stays bound in the presence of the test substance.

The nature of series [2]: Solubility in 100 mM bistrispropane buffer at pH 8.0 incubated for 18 hrs by UPLC analysis. The class given is physicochemical.
A short description of series [3]: Solubility in 100 mM glycylglycine buffer at pH 3.0 incubated for 18 hrs by UPLC analysis. It counts as physicochemical.
A short description of series [4]: Solubility in 100 mM bistrispropane buffer at pH 6.5 incubated for 18 hrs by UPLC analysis. The class given is physicochemical.
A short description of series [5]: Solubility in 100 mM bistrispropane buffer at pH 7.0 incubated for 18 hrs by UPLC analysis. It counts as physicochemical.
In a further series the target is T2, Calcitonin receptor (Homo sapiens, UniProt P30988).
T2 sequence (P30988 whole entry): T1 sequence (P30988 whole entry)
The series can be described thus: Agonist activity at human calcitonin receptor expressed in BHK570 cells assessed as increase in intracellular cAMP concentration incubated for 3 hrs in absence of albumin by CRE luciferase reporter gene assay. It counts as functional, cell-based. (In a reporter assay the amount or activity of a reporter protein is the signal.)

The nature of series [6]: Solubility in 100 mM glycylglycine buffer at pH 4.0 incubated for 18 hrs by UPLC analysis. It counts as physicochemical.
Series [7] is described as follows: Solubility in 100 mM glycylglycine buffer at pH 5.0 incubated for 18 hrs by UPLC analysis. The class given is physicochemical.
Series [8] can be described thus: Solubility in 100 mM bistrispropane buffer at pH 6.0 incubated for 18 hrs by UPLC analysis. The class given is physicochemical.
The target of series [9] is T1, Amylin receptor AMY3; CALCR/RAMP3. Nature of the series: Agonist activity at human amylin receptor expressed in BHK570 cells co-expressing RAMP3 assessed as increase in intracellular cAMP concentration incubated for 3 hrs in absence of albumin by CRE luciferase reporter gene assay. The class given is functional, cell-based.
A short description of series [10]: Solubility in 100 mM bistrispropane buffer at pH 7.5 incubated for 18 hrs by UPLC analysis. The class given is physicochemical.

For the molecule `CC[C@H](C)[C@H](NC(=O)[C@H](CCC(=O)O)NC(=O)[C@H](Cc1cnc[nH]1)NC(=O)[C@H](CC(C)C)NC(=O)[C@H](CCC(=O)O)NC(=O)[C@H](C)NC(=O)[C@H](CO)NC(=O)[C@H](CC(C)C)NC(=O)[C@H](CCCNC(=N)N)NC(=O)CNC(=O)[C@H](CC(C)C)NC(=O)[C@H](C)NC(=O)[C@H](C)NC(=O)[C@@H](NC(=O)[C@H](CO)NC(=O)[C@H](CC(C)C)NC(=O)[C@H](CCC(=O)O)NC(=O)[C@H](CO)NC(=O)[C@H](C)NC(=O)[C@H](CCC(=O)O)NC(=O)CCCCCCCCCCCCCCCCC(=O)O)[C@@H](C)O)C(=O)N[C@@H](C)C(=O)N[C@H](C(=O)N[C@@H](CC(C)C)C(=O)N1CCC[C@H]1C(=O)N[C@@H](CCCNC(=N)N)C(=O)N[C@H](C(=O)N[C@@H](CCC(=O)O)C(=O)N[C@H](C(=O)NCC(=O)N1CCC[C@H]1C(=O)N[C@@H](CCC(=O)O)C(=O)N[C@@H](CO)C(=O)N1CCC[C@H]1C(N)=O)[C@@H](C)O)[C@@H](C)O)[C@@H](C)O` ({C18 diacid}-EASELSTAALGRLSAELHEIATLPRTETGPESP-NH2), the half-inhibitory concentration (IC50) in series [1] was 0.511 nM. In addition, the solubility at 18 h in series [2], in series [3], in series [4], in [5], in [6] and in series [7] was not below 200 µM in each case. The solubility at 18 h in [8] and in series [10] was not below 200 µM in each case. For the same molecule, the EC50 was 0.005 nM on Calcitonin receptor and 0.006 nM in series [9].

With `CC(C)C[C@H](NC(=O)[C@H](CCC(=O)O)NC(=O)[C@H](Cc1cnc[nH]1)NC(=O)[C@H](CC(C)C)NC(=O)[C@H](CCC(=O)O)NC(=O)[C@H](C)NC(=O)[C@H](CO)NC(=O)[C@H](CC(C)C)NC(=O)[C@H](CCCNC(=N)N)NC(=O)CNC(=O)[C@H](CC(C)C)NC(=O)[C@@H](NC(=O)[C@H](C)NC(=O)[C@@H](NC(=O)[C@H](CO)NC(=O)[C@H](CC(C)C)NC(=O)[C@H](CCC(=O)O)NC(=O)[C@H](CO)NC(=O)[C@H](C)NC(=O)[C@H](CCC(=O)O)NC(=O)CCCCCCCCCCCCCCCCC(=O)O)[C@@H](C)O)C(C)C)C(=O)N[C@@H](C)C(=O)N[C@H](C(=O)N[C@@H](CC(C)C)C(=O)N1CCC[C@H]1C(=O)N[C@@H](CCCNC(=N)N)C(=O)N[C@H](C(=O)N[C@@H](CCC(=O)O)C(=O)N1CCC[C@H]1C(=O)NCC(=O)N1CCC[C@H]1C(=O)N[C@@H](CCC(=O)O)C(=O)N[C@@H](CO)C(=O)N1CCC[C@H]1C(N)=O)[C@@H](C)O)[C@@H](C)O` ({C18 diacid}-EASELSTAVLGRLSAELHELATLPRTEPGPESP-NH2), the IC50 in series [1] is 9 nM. Moreover, the solubility at 18 h in [2], in series [3], in series [4], in series [5], in series [6] and in series [7] was not below 200 µM throughout. Moreover, the solubility at 18 h in [8] and in [10] was not below 200 µM in each case. Moreover, the half-maximal effective concentration (EC50) was 0.012 nM on Calcitonin receptor and 0.031 nM in series [9].

In the case of `CC(C)C[C@H](NC(=O)[C@H](C)NC(=O)[C@H](CC(C)C)NC(=O)[C@@H](NC(=O)[C@H](CO)NC(=O)[C@H](CC(C)C)NC(=O)[C@H](CCC(=O)O)NC(=O)[C@H](CO)NC(=O)[C@H](C)NC(=O)[C@H](CCC(=O)O)NC(=O)CCCCCCCCCCCCCCCCC(=O)O)[C@@H](C)O)C(=O)NCC(=O)N[C@@H](CCCNC(=N)N)C(=O)N[C@@H](CC(C)C)C(=O)N[C@@H](CO)C(=O)N[C@@H](C)C(=O)N[C@@H](CCC(=O)O)C(=O)N[C@@H](CC(C)C)C(=O)N[C@@H](Cc1cnc[nH]1)C(=O)N[C@@H](CCC(=O)O)C(=O)N[C@@H](CC(C)C)C(=O)N[C@@H](C)C(=O)N[C@H](C(=O)N[C@@H](CC(C)C)C(=O)N1CCC[C@H]1C(=O)N[C@@H](CCCNC(=N)N)C(=O)N[C@H](C(=O)N[C@@H](CCC(=O)O)C(=O)N[C@H](C(=O)NCC(=O)N1CCC[C@H]1C(=O)N[C@@H](CCC(=O)O)C(=O)N[C@@H](CO)C(=O)N1CCC[C@H]1C(N)=O)[C@@H](C)O)[C@@H](C)O)[C@@H](C)O` ({C18 diacid}-EASELSTLALGRLSAELHELATLPRTETGPESP-NH2), the IC50 in series [1] was 0.275 nM. The solubility at 18 h in [2], in series [3], in [4], in series [5], in series [6] and in [7] was not below 200 µM throughout. In addition, the solubility at 18 h in series [8] and in series [10] was not below 200 µM each time. The EC50 at Calcitonin receptor was 0.007 nM; in series [9] it was 0.009 nM.

Regarding `CC(C)C[C@H](NC(=O)[C@H](CCC(=O)O)NC(=O)[C@H](Cc1cnc[nH]1)NC(=O)[C@H](CC(C)C)NC(=O)[C@H](CCC(=O)O)NC(=O)[C@H](C)NC(=O)[C@H](CO)NC(=O)[C@H](CC(C)C)NC(=O)[C@H](CCCNC(=N)N)NC(=O)CNC(=O)[C@H](CC(C)C)NC(=O)[C@@H](NC(=O)[C@H](C)NC(=O)[C@@H](NC(=O)[C@H](CO)NC(=O)[C@H](CC(C)C)NC(=O)[C@@H]1CCCN1C(=O)[C@H](CO)NC(=O)[C@H](C)NC(=O)[C@H](CCC(=O)O)NC(=O)CCCCCCCCCCCCCCCCC(=O)O)[C@@H](C)O)C(C)C)C(=O)N[C@@H](C)C(=O)N[C@H](C(=O)N[C@@H](CC(C)C)C(=O)N1CCC[C@H]1C(=O)N[C@@H](CCCNC(=N)N)C(=O)N[C@H](C(=O)N[C@@H](CCC(=O)O)C(=O)N[C@H](C(=O)NCC(=O)N1CCC[C@H]1C(=O)N[C@@H](CCC(=O)O)C(=O)N[C@@H](CO)C(=O)N1CCC[C@H]1C(N)=O)[C@@H](C)O)[C@@H](C)O)[C@@H](C)O` ({C18 diacid}-EASPLSTAVLGRLSAELHELATLPRTETGPESP-NH2), the IC50 in series [1] was 0.323 nM. For the same molecule, the solubility at 18 h in series [2], in [3], in series [4], in series [5], in series [6] and in series [7] was not below 200 µM throughout. Also, the solubility at 18 h in series [8] and in series [10] was not below 200 µM in each case. In addition, the EC50 at Calcitonin receptor is 0.007 nM; in series [9], 0.014 nM.
